Experimental data published in US20250136607A1 (REGOR PHARMACEUTICALS, INC., priority 2021, published 2025).
pIC50: −log10 of the molar value. Like-named read-outs stand apart in the source and are kept apart here.

Test system: Citrullinated Histone H3 in 4T1 (TNBC cell line) cells
Test: 4T1 CECN ELISA assay
Assay type: cell-based
Details: 4T1 cells, stimulation with 50 μM A23187 for 4 h, read-out: Average IC50 Abs
Description: Cell culture: 4T1 cells were grown in DMEM+10% FBS+1% HEPES+1% PS. Cells plating: • 1) 4T1 cells were collected and the plate was centrifuged at 1000 rpm for 5 min. • 2) The 4T1 cells were diluted to 0.5×10^6 cells/mL and plated into a 96-well plate with 100 μL/well. The plate was then incubated in the incubator (5% CO2, 37° C.) for overnight to allow cells to adhere, exchanged fresh culture medium with 100 μL/well. Compound treatment: • 1) Preparation of compound serial dilution (source plate 500×, final DMSO concentration: 0.2%): briefly, compounds were dissolved in 100% DMSO to a concentration of 20 mM (the stock solution) and a 3-fold serial dilution with 8-point doses was performed. • 2) 10× compound solution was pipetted up and down; and 10 μL/well of compounds were added into each well and incubated for 30 min. Stimulation with 50 μM A23187: • 1) A solution of A23187 (500 μM) in complete DMDM (DMDM+10% FBS+1% PS+1 mM CaCl2) containing 150 U/mL S7 Nuclease was prepared. The obtained solution was added 10 μL/well into each well and incubated for 4 h in the incubator (5% CO2, 37° C.). • 2) The 4T1 cells treated with 10 μL/well complete DMDM without A23187 worked as negative control. Sample preparation: • 1) EDTA (0.5 M, 2 μL/well) were added to all the wells to stop the reaction. • 2) The plate was centrifuged at 1000 rpm for 5 min to collect supernatant. • 3) The supernatant was then diluted at least 1:2 before adding to the ELISA plate for citrullinated H3 analysis.
The standard was reconstituted with 2 mL of Assay buffer to 500 ng/mL. The reconstituted standard was relatively unstable at 4° C. and should be used within 3 hr after reconstitution.
• 1) 100 μL of the standards or diluted samples were added to the wells on the ELISA plate. • 2) The plate was covered with Cover Sheet and incubated for 2 h at RT on an orbital shaker.
On the day of the assay, the reagent was thawed at rt. For one plate, 1.2 mL of HRP Conjugate were diluted into 10.8 mL of assay buffer. A diluted HRP Conjugate was prepared shortly before use.
• 1) The wells were empties and rinsed four times with 1× wash buffer with 300 μL/well (Low speed). The plate was inverted between wash steps to empty the plate. After the last wash, the inverted plate was gently tapped on absorbent paper to remove the residual wash buffer. • 2) 100 μL of the HRP Conjugate working solution were added to each well of the plate. • 3) The plate was covered with cover sheet and incubated for 1 h at RT on an orbital shaker.
• 1) The wells were empties and rinsed four times with 1× wash buffer with 300 μL/well (low speed). The plate was inverted between wash steps to empty the plate. […] 100 μL of HRP STOP solution were added to each well of the plate.
• 1) Wipe the bottom of the plate with a clean tissue to remove fingerprints, dirt, etc. • 2) Read the plate at a wavelength of 450 nm.
The percent (%) inhibition at each concentration of compound was calculated based on and relative to the signal in the HPE and ZPE wells contained within each assay plate. The HPE wells worked as […], and the ZPE wells didn't contain any compound but rather DMSO (final concentration=[…]) as […]. The concentrations and % inhibition values for tested compounds were plotted and the concentration of compound required for 50% inhibition (IC50) was determined with a Four-parameter logistic dose response equation. The endpoint value (IC50) for the reference peptide/compound was evaluated in each experiment as a quality control measure. If the endpoint value is within 3-fold of the expected value then the experiment is deemed acceptable. The results of representative compounds of the present invention are provided in Table 3 below. ≤0.1 μM=“++++”; >0.1 and ≤0.5 μM=“+++”; >0.5 and ≤5.0 μM=“++”; >5.0 μM=“+”. “−”=not available.

Structure (SMILES)	pIC50 (Mus musculus, 4T1, 4 h)	pIC50	other results
C#CCn1c(-c2cc3cccc4c3n2C(CC)CN4CCCO)nc2cc(C(=O)N3C[C@H](N)C[C@@H](F)C3)cc(OC)c21 (stereo partly drawn) [Example 95, ((3R,5R)-3-amino-5-fluoropiperidin-1-yl)(2-(3-ethyl-1-(3-hydroxypropyl)-2,3-dihydro-1H-pyrrolo[1,2,3-de]quinoxalin-5-yl)-7-methoxy-1-(prop-2-yn-1-yl)-1H-benzo[d]imidazol-5-yl)methanone]	≥ 7.00	–	–
CCC1CN(CCCO)c2cccc3cc(-c4nc5cc(C(=O)N6C[C@H]7CC[C@@H]6[C@@H]7N)cc(OC)c5n4C)n1c23 (single isomer, unassigned) [Example 87]	–	≥ 7.00	–
CCC1CN(CCCO)c2cccc3cc(-c4nc5cc(C(=O)N6C[C@H](N)C[C@@H](F)C6)cc(OC)c5n4C)n1c23 (single isomer, unassigned) [Example 82]	≥ 7.00	–	–
CCC1CN(CCCO)c2cccc3cc(-c4nc5cc(C(=O)N6C[C@H](N)C[C@@H](F)C6)cc(F)c5n4C)n1c23 (stereo partly drawn) [Example 75, ((3R,5R)-3-amino-5-fluoropiperidin-1-yl)(2-(3-ethyl-1-(3-hydroxypropyl)-2,3-dihydro-1H-pyrrolo[1,2,3-de]quinoxalin-5-yl)-7-fluoro-1-methyl-1H-benzo[d]imidazol-5-yl)methanone]	6.30 to 7.00	–	–
CCC1CN(CCCO)c2cccc3cc(-c4nc5cc(C(=O)N6C[C@H]7CC[C@@H]6[C@@H]7N)cc(OC)c5n4C)n1c23 (single isomer, unassigned) [Example 86]	–	< 5.30	–
CCC1CN(CCCO)c2cccc3cc(-c4nc5cc(C(=O)N6C[C@H]7CC[C@@H]6[C@@H]7N)cc(F)c5n4CC)n1c23 (stereo partly drawn) [Example 96, ((1R,4R,7R)-7-amino-2-azabicyclo[2.2.1]heptan-2-yl)(1-ethyl-2-(3-ethyl-1-(3-hydroxypropyl)-2,3-dihydro-1H-pyrrolo[1,2,3-de]quinoxalin-5-yl)-7-fluoro-1H-benzo[d]imidazol-5-yl)methanone]	–	–	pIC50 (Mus musculus): 6.30 to 7.00
